24 compounds from PubChem BioAssay (NCI) can be followed below.

Holding throughout (test): NCI anticancer screen, dose series, 48 h
The subject of test [1] is A549 NSCLC.
Test [2] deals with DLD-1 colon.
For test [3], the system named is DMS 273 small cell lung.
Test [4] has as its system HCC-2998 colon.
Test [5] concerns HCT-116 colon.
Test [6] relates to HOP-18 NSCLC.
The subject of test [7] is HT29 colon.
The subject of test [8] is KM20L2 colon.
The subject of test [9] is NCI-H226 lung.
The test system of test [10] is NCI-H23 lung.
Test [11] concerns SF-268 CNS.
The test system of test [12] is TK-10 renal.

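Briefly, cells in 96-well plates were exposed to five compound concentrations for 48 h, and endpoints were estimated by linear interpolation. GI50 marks 50% less growth. TGI: concentration producing complete growth inhibition.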

As to `CCCCCCCCCCCCCC(=O)CSCCNC(=O)CCNC(=O)[C@@H](O)C(C)(C)COP(=O)(O)OP(=O)(O)OCC1OC(n2cnc3c(N)ncnc32)C(O)C1OP(=O)(O)O` (stereo partly drawn), the TGI in test [1] was found to be 45.9 µM; in test [2], 41.1 µM; in [3], 26.2 µM; in test [4], 35.7 µM; in [5], 30.1 µM; in test [6] it was 31.7 µM. The TGI was 45.3 µM in [7]; 48 µM in test [8]; 35.7 µM in test [9]; 42 µM in [10]; 47.7 µM in test [11]; over 100 µM in test [12].

On to `CCOc1ccc(O)cc1[P+](c1ccccc1)(c1ccccc1)c1ccccc1`, for which the TGI in test [1] is 43.2 µM; in test [2] it was 17.6 µM; in [3] it was 10.1 µM; in test [4] it was 13.4 µM; in test [5] it was 13.7 µM; in test [6] it was 9.61 µM. The TGI in test [7] was 17.6 µM; in [8], 17.9 µM; in test [9], 14.5 µM; in test [10] it was 5.55 µM; in test [11], over 100 µM; in test [12], 12.9 µM.

`CN(/N=C/c1cccc2cccnc12)c1c([N+](=O)[O-])cc([N+](=O)[O-])cc1[N+](=O)[O-]`: the TGI in test [1], in test [2], in test [3], in [4], in test [5] and in test [6] was over 100 µM throughout. Further, the TGI in [7], in test [8], in test [9], in test [10], in [11] and in [12] was over 100 µM in each case.

Take `CCOC(=O)/C(=C/c1ccc(N(CCC#N)CCC#N)cc1C)NC(=O)/C=C/c1ccccc1`: the TGI in test [1], in test [2], in [3], in test [4], in test [5] and in test [7] was over 100 µM throughout. Moreover, the TGI in [8], in test [9], in [10], in test [11] and in [12] was over 100 µM in each case.

With `Cc1cc(=O)[nH]c(CNC(=O)c2cccc(C(=O)NCc3cc(=O)[nH]c(C)n3)c2)n1`, the TGI in [1], in test [2], in test [3], in test [4], in test [5] and in [6] was over 100 µM throughout. Moreover, the TGI in test [7], in test [8], in test [9], in test [10], in test [11] and in [12] was over 100 µM in each case.

For `O=C(CCc1nnc2s/c(=C\c3ccccc3Cl)c(=O)n12)Nc1cc(Cl)ccc1Cl`, the TGI in test [1], in test [2], in [4], in [5], in [6] and in test [7] was over 100 µM in each case. Further, the TGI in test [9], in test [10], in [11] and in test [12] was over 100 µM each time.

Take `C[C@]12CCNC(=O)C=C1CC[C@@H]1C2CC[C@@]2(C)C1CC[C@@H]2OC(=O)COc1ccc(N(CCCl)CCCl)cc1` (stereo partly drawn): the TGI in test [1] turned out to be 23 µM; in [2] it was 17.8 µM; in test [3], 12.2 µM; in test [4], 15 µM; in test [5], 13.9 µM; in test [6], 47.7 µM. Besides, the TGI in test [7] stood at 27.5 µM; in test [8], 30.3 µM; in test [9], 28.5 µM; in test [10], 20.2 µM; in [11], 23.8 µM; in [12], 35.6 µM.

Regarding `CC(=O)NNc1nc(C)c(C(=O)NNC(=O)C(=O)Nc2ccc([N+](=O)[O-])cc2C#N)s1`, the TGI in test [1], in [3], in test [4], in [5], in test [7] and in test [8] was over 100 µM throughout. Also, the TGI in test [9], in test [10], in [11] and in test [12] was over 100 µM in each case.

For `CC1NC(=O)C2=C1C(N)=NC(=O)C2` (stereo not drawn), the TGI in [1], in [2], in test [3], in test [4], in test [5] and in test [6] was over 100 µM throughout. Further, the TGI in test [8], in test [9], in test [10], in [11] and in test [12] was over 100 µM each time.

For `CCN(CC)CCn1[nH]c2c3ccc(=O)cc3sc3c(NCCN)ccc1c32`, the TGI in test [1] was 14.5 µM; in [2] it was 10.1 µM; in test [5], 2.19 µM; in [6], 13.6 µM; in test [7], 6.2 µM; in [11], over 100 µM. In [12], the TGI was 11.3 µM.

Consider `CC(C)(C)OC(=O)c1cccnc1/C=N/O`, for which the TGI in test [1], in [2], in test [3], in [5], in test [6] and in [7] was over 100 µM throughout. The TGI in [8], in test [9], in test [10], in test [11] and in test [12] was over 100 µM each time.

As to `NCCCCCCNCc1cccc2ccccc12`, the TGI in [1], in test [2], in test [5], in test [6], in test [7] and in [8] was over 100 µM in each case. Moreover, the TGI in [9], in test [10] and in test [12] was over 100 µM in each case.

With `CC[N+](C)(CC)CC(C)(C)C(=O)/C=C/c1ccc(/C=C/C(=O)C(C)(C)C[N+](C)(CC)CC)cc1`, the TGI in [1], in test [2], in test [3], in test [4], in [5] and in [7] was over 100 µM throughout. Besides, the TGI in test [8], in test [9], in [10], in [11] and in test [12] was over 100 µM throughout.

As for `O=C1C2C3C=C4c5ccccc5N(c5ccccc5)C4(C2C(=O)N1c1ccc(Br)cc1)[C@H]1C(=O)N(c2ccc(Br)cc2)C(=O)[C@@H]31` (stereo partly drawn), the TGI in [1], in test [2], in [3], in test [5], in test [6] and in test [7] was over 100 µM throughout. Besides, the TGI in [8], in test [9], in [10] and in test [12] was over 100 µM each time.

Consider `Cc1nc2sccn2c1C(=O)NC(=O)Nc1ccc(Cl)cc1`, for which the TGI in test [1], in [2], in test [3], in test [4], in test [5] and in test [7] was over 100 µM throughout. The TGI in test [8], in [9], in test [10], in test [11] and in test [12] was over 100 µM throughout.

As for `Cn1c(=O)c2[nH]cnc2n(CC(N)=O)c1=O`, the TGI in test [1], in [2], in test [3], in [5], in [7] and in test [10] was over 100 µM throughout. Further, the TGI in [11] and in [12] was over 100 µM throughout.

Regarding `COc1cc2c(cc1C1=NC(C)(C)CO1)OCO2`, the TGI in test [1], in [2], in test [5], in test [6], in test [7] and in [8] was over 100 µM in each case. Further, the TGI in test [9], in test [10], in [11] and in test [12] was over 100 µM each time.

`N#Cc1ccc2cc3c(cc2c1)OCO3`: the TGI in [2], in test [3], in test [4], in [5], in test [7] and in test [8] was over 100 µM throughout. Moreover, the TGI in [9], in [10] and in test [11] was over 100 µM throughout.

In the case of `COC1C2c3cc4c(cc3CC(C#N)(c3ccccc32)N1C(=O)c1ccccc1)OCO4` (stereo not drawn), the TGI in [2], in test [3], in [4], in test [5], in test [6] and in [7] was over 100 µM each time. Also, the TGI in test [8], in test [9], in [10], in test [11] and in [12] was over 100 µM in each case.

For `C/C=C/COC(=O)CO[N+](=O)[O-]`, the TGI in test [1], in test [2], in test [3], in [4], in [5] and in test [7] was over 100 µM each time. Moreover, the TGI in test [8], in test [9], in test [10], in [11] and in test [12] was over 100 µM throughout.

In the case of `S=C=NCCc1ccccc1`, the TGI is 6.38 µM in test [1]; 0.324 µM in test [2]; 1.1 µM in [3]; 1.54 µM in [4]; 1.74 µM in [5]; 0.554 µM in [7]. Moreover, the TGI was found to be 6.68 µM in test [8]; 2.88 µM in test [9]; 1.31 µM in test [10]; 3.65 µM in [11]; 3.34 µM in [12].

For the compound `c1ccc(P(=C2c3ccccc3-c3ccccc32)(c2ccccc2)c2ccccc2)cc1`, the TGI in test [1] was 29.6 µM; in test [2] it was 65.5 µM; in test [3], 19.2 µM; in test [4] it was 15.3 µM; in test [6], 80 µM; in [7], 10.4 µM. Moreover, the TGI in test [8] was found to be 8.21 µM; in test [10], 9.97 µM; in test [11] it was 69 µM; in test [12], 52.2 µM.

Regarding `Nc1nc(=O)n([C@@H]2CS[C@H](CO)O2)cc1F`, the GI50 in [1], in [4], in [5], in [7], in [9] and in test [10] was over 100 µM each time. Besides, the GI50 in test [11] and in [12] was over 100 µM in each case. The TGI in [1], in test [4], in test [5], in test [7], in test [9] and in [10] was over 100 µM throughout. For the same compound, the TGI in test [11] and in test [12] was over 100 µM throughout.

Consider `COc1ccc(Nc2nc3cc(N)cc(N)c3nc2-c2ccccc2)cc1OC`, for which the GI50 in [1] was 35.2 µM; in test [4], 18.4 µM; in test [5], 14.9 µM; in test [7], 25.2 µM; in test [9], 18.7 µM; in [10] it was 26.3 µM. Moreover, the GI50 in [11] was 14.2 µM; in test [12] it was 20.9 µM. The TGI in [1] is over 100 µM; in test [4], 39.6 µM; in [5] it was 29.7 µM; in [7], 52.7 µM; in test [9] it was 57.1 µM; in test [10], 80.1 µM. The TGI in [11] stood at 47.1 µM; in [12], 58.5 µM.
